Results: patent publication US6946470B2, “Method of treating psychosis in a patient” (Medical and Pharmaceutical Industry Technology and …, priority 2002, dated 2005)

What was measured:
[1] = target: T1, serotonin 5-HT2 receptors (Rattus norvegicus, UniProt P14842); assay: Serotonin 5-HT2 receptor binding assay ([3H]Ketanserin); settings: 30 nM, rat whole brain membranes
T1 construct: from tissue; host or cells: rat whole brain (except cerebellum) membranes
Experimental: Serotonin 5-HT2 Receptor Binding Assay
This assay measures binding of [^3H]Ketanserin to serotonin 5-HT2 receptors. Whole brain (except cerebellum) membranes of male Wistar derived rats weighing 175±25 g were prepared in Tris-HCl pH 7.7 buffer. A 10 mg aliquot of membrane was incubated with 0.5 nM [^3H]Ketanserin for 40 minutes at 25° C. Non-specific binding was estimated in the presence of 1 μM Ketanserin. Membranes were filtered and washed three times and the filters were counted to determine [^3H]Ketanserin specifically bound. [Reference: Leysen J E, Niemegeers C J, Van Nauten J M, Laduron D M. Mol. Pharmacol. 21: 301-314, 1982]

[2] = target: T2, human dopamine D2L receptors (Homo sapiens, UniProt P14416); assay: Dopamine D2L receptor binding assay ([3H]Spiperone); settings: 30 nM, CHO cell membranes
T2 construct: expressed in transfected cells
T2 sequence (P14416 whole entry): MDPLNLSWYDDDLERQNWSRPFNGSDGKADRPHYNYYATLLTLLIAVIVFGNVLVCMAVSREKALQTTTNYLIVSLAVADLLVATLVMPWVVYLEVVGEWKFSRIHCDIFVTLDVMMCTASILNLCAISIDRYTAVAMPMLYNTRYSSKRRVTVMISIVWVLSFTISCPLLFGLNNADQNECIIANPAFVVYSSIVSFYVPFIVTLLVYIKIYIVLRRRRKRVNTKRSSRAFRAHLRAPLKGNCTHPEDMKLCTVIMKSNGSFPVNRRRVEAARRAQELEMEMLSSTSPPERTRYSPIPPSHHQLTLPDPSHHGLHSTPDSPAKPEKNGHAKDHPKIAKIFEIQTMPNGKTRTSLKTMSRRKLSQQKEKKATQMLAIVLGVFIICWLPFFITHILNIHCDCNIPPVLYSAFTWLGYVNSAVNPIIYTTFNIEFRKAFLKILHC
Experimental: Dopamine D2L Receptor Binding Assay
This assay measures binding of [^3H]Spiperone to human dopamine D2L receptors. CHO cells stably transfected with a plasmid encoding the human dopamine D2L receptor were used to prepare membranes in modified Tris-HCl pH 7.4 buffer. A 20 μg aliquot of membrane, in the presence or absence of a test compound, was incubated with 0.16 nM [^3H]Spiperone for 120 minutes at 25° C. Non-specific binding was estimated in the presence of 10 μM hapoperidol. Membranes were filtered and washed three times and the filters were counted to determine [^3H]Spiperone specifically bound. [References: Grandy D K, Marchionni M A, Makam H, Stofko R E, Alfano M, Frothingham L, Fischer J B, Burker-Howie K J, Bunzow J R, Server A C. Proc. Natl. Acad. Sci. (USA) 86: 9762-9766, 1989; Bunzow J R, Van Tol H H, Grandy D K, Albert P, Salon J, Christie M, Machida C A, Neve K A, Civelli O. Nature 336: 783-787, 1988; Hayes G, Biden T J, Selbie L A, Shine J. Mol. Endocrin. 6: 920-926, 1992]

[3] = system: apomorphine-induced climbing behavior in mice; assay: Effects on apomorphine-induced climbing behavior; format: in vivo; settings: for Inhibition % of apomorphine-induced climbing behavior: apomorphine 1 mg/kg SC 60 min after dosing; for Agonist activity (score): group score 0-6, 30 to 60 minutes post-dosing, 3 mice
Experimental: Climbing behavior was scored 0-2 for each animal from 30 to 60-minutes post-dosing: all four paws on floor=0, both forefeet holding the wall=1, all four paws on wall=2. Consequently, maximum possible group score was 2×3 mice=6. A score of 3 or more (≧3) during this 30 minute observation period denotes dopamine-agonist activity. Mice in which no significant dopamine agonist activity occurred were then used to determine antagonistic activity. […] [Reference: Psychopharmacology 50: 1-6, 1976] Percentage inhibition of test substance on apomorphine-induced climbing behavior is calculated as follows: [formula]

T1 sequence (P14842 whole entry): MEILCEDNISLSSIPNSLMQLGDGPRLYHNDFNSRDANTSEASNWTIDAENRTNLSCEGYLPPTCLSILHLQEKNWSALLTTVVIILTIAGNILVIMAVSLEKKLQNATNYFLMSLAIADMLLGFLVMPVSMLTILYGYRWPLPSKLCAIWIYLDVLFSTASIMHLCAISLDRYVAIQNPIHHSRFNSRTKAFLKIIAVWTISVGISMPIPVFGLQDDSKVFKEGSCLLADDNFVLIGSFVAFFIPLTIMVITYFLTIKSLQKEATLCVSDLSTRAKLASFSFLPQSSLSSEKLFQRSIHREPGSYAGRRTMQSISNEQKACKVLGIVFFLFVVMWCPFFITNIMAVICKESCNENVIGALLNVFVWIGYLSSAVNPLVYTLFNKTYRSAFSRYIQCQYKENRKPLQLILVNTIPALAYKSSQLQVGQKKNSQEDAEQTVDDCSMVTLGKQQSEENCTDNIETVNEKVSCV

Row | Structure (SMILES) | inhibition at 0.03 µM [1] | inhibition at 0.03 µM [2] | Inhibition % 5-HT2 [1] | Inhibition % D2L [2] | other results
1 | O=C1Nc2ccccc2C2=NC(CN3CCN(Cc4ccccc4)CC3)CN12 (stereo not shown) [PDC-121, 2-[4-benzyl-1-piperazinyl]methyl-2,3-dihydroimidazo[1,2-c]quinazolin-5(6H)-one] | 21% | 18% |  |  | 
2 | O=C1Nc2ccccc2C2=NC(CC3CCC4(CCCCC4)NC3)CN12 (stereo not shown) [PDC-122, 3-{2,3-dihydroimidazo[1,2-c]quinazolin-5(6H)-one-2-yl}methyl-azaspiro-[5,5]undecane] | 2% | 13% |  |  | 
3 | O=C1Nc2ccccc2C2=NC(CN3CCN(Cc4ccc5c(c4)OCO5)CC3)CN12 (stereo not shown) [PDC-123, 2-[4-piperonyl-1-piperazinyl]methyl-2,3-dihydroimidazo[1,2-c]-quinazolin-5(6H)-one] | 4% | 11% |  |  | 
4 | O=C1Nc2ccccc2C2=NC(CN3CCC(Cc4ccccc4)CC3)CN12 (stereo not shown) [PDC-124, 2-[4-Benzyl-1-piperidinyl]methyl-2,3-dihydroimidazo[1,2-c]quinazolin-5(6H)-one] | 62% | 14% |  |  | Inhibition % of apomorphine-induced climbing behavior ([3]; PO 30 mg/kg): 50%; Agonist activity (score) ([3]; PO 30 mg/kg): 0
5 | O=C1Nc2ccccc2C2=NC(CNC3CCN(Cc4ccccc4)CC3)CN12 (stereo not shown) [PDC-126, 2-[1-benzylpiperidin-4-yl]aminomethyl-2,3-dihydroimidazo[1,2-c]-quinazolin-5(6H)-one] | 11% | 29% |  |  | 
6 | O=C1Nc2ccccc2C2=NC(CN3CCN(Cc4ccc(F)cc4)CC3)CN12 (stereo not shown) [PDC-127, 2-[4-(4-fluorobenzyl)-1-piperazinyl]methyl-2,3-dihydroimidazo[1,2-c]quinazolin-5(6H)-one] | 20% | 11% |  |  | 
7 | O=C(c1ccc(F)cc1)C1CCN(CC2CN3C(=O)Nc4ccccc4C3=N2)CC1 (stereo not shown) [PDC-130, 2-[1-(4-p-fluorobenzoyl)piperidinyl]methyl-2,3-dihydroimidazo[1,2-c]-quinazolin-5(6H)-one] |  |  | 88% | 16% | Inhibition % of apomorphine-induced climbing behavior ([3]; PO 1 mg/kg): 0%; Agonist activity (score) ([3]; PO 1 mg/kg): 0; Inhibition % of apomorphine-induced climbing behavior ([3]; PO 3 mg/kg): 60%; Agonist activity (score) ([3]; PO 3 mg/kg): 0; Inhibition % of apomorphine-induced climbing behavior ([3]; PO 10 mg/kg): 100%; Agonist activity (score) ([3]; PO 10 mg/kg): 0; Inhibition % of apomorphine-induced climbing behavior ([3]; PO 30 mg/kg): 100%; Agonist activity (score) ([3]; PO 30 mg/kg): 0
8 | O=C1Nc2ccccc2C2=NC(CN3CCN(C(c4ccccc4)c4ccc(Cl)cc4)CC3)CN12 (stereo not shown) [PDC-131, 2-[1-(4-chlorobenzhydryl)piperazinyl]methyl-2,3-dihydroimidazo[1,2-c]-quinazolin-5(6H)-one] |  |  | 47% | 10% | 
9 | COc1ccc(N2CCN(CC3CN4C(=O)Nc5ccccc5C4=N3)CC2)cc1 (stereo not shown) [PDC-132, 2-[1-(4-methoxyphenyl)piperazinyl]methyl-2,3-dihydroimidazo[1,2-c]-quinazolin-5(6H)-one] |  |  | 5% | 15% | 
